Reference: patent publication US12589156B2, “Benzimidazole and benzimidazolone based protac compounds for the targeted degradation of leucine rich repeat kinase 2 (LRRK2)” (Arvinas Operations, Inc., priority 2023, dated 2026)
Each block holds one compound with its values, some of them ahead of it.

Biological target: T1, WT LRRK2 (Homo sapiens, UniProt Q5S007)
T1 construct: endogenous in cells; host or cells: HEK293 (endogenous LRRK2 gene knock-in tagged with HiBit; stably expressing CMV-driven firefly luciferase)
T1 sequence (Q5S007 whole entry): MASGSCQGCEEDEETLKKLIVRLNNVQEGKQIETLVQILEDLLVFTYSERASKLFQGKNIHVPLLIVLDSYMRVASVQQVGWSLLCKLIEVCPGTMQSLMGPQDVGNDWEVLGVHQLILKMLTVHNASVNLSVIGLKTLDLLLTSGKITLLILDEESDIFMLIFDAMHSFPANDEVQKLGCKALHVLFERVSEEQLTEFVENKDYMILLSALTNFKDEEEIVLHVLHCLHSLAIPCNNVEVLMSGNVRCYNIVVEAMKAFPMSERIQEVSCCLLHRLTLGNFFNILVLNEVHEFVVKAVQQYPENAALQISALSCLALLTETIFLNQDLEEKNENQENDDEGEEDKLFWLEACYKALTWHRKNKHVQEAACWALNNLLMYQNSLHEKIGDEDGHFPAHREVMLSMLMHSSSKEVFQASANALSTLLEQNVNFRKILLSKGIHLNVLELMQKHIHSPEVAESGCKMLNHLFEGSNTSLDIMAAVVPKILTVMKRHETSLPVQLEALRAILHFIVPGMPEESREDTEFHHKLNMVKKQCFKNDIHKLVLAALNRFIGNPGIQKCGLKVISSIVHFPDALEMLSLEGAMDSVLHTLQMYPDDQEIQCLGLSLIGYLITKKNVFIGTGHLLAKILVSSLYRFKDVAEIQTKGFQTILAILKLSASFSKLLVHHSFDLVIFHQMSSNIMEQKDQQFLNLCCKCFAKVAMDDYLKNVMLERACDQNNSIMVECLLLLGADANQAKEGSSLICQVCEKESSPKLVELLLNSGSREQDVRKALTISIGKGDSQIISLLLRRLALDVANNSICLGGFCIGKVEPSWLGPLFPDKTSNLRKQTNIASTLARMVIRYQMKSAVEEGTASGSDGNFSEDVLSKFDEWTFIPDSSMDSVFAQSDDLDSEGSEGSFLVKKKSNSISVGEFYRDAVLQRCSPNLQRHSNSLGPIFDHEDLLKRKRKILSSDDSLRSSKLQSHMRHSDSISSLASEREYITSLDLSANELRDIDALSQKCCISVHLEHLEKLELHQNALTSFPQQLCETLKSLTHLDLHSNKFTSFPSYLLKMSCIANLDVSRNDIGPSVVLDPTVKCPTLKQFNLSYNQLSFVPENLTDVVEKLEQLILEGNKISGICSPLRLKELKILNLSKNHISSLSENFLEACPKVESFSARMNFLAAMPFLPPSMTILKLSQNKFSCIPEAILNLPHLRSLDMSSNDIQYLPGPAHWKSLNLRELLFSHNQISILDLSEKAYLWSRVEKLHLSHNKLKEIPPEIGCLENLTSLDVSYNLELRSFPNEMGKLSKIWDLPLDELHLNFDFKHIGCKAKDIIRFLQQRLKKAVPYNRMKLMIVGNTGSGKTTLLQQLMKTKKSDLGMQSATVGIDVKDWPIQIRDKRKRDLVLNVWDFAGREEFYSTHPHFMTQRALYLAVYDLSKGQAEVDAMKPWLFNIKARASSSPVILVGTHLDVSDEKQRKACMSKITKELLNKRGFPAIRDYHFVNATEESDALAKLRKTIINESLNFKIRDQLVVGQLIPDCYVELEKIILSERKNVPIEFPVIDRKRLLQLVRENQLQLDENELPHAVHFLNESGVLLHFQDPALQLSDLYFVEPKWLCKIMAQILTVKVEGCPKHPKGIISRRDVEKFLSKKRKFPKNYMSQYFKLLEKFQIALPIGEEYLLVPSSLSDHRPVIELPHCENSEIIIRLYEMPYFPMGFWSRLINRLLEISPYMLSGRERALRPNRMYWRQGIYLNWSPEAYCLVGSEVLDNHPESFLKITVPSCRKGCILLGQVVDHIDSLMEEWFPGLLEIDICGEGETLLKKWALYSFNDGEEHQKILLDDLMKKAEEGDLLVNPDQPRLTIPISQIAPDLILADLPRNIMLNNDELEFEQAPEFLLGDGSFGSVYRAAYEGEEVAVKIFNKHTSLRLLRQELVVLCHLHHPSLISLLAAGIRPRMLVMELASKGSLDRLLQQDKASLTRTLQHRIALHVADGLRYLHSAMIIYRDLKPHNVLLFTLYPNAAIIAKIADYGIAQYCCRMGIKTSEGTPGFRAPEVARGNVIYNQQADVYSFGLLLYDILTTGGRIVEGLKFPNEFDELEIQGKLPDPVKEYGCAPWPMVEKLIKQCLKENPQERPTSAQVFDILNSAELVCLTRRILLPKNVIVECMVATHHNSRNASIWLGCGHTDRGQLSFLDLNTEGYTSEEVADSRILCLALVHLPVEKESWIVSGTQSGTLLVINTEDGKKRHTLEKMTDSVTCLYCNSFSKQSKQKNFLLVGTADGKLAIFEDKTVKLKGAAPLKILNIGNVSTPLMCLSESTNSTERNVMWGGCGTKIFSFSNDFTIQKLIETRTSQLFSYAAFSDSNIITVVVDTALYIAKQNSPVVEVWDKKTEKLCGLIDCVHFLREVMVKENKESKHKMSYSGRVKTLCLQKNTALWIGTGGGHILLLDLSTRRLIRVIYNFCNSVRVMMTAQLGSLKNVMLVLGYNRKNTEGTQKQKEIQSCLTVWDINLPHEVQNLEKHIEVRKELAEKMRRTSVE
Test: LRRK2 HiBit degradation assay (Nano-Glo Dual Luciferase) in HEK293 cells with HiBit-tagged endogenous LRRK2
Type: cell-based
Conditions: for Dmax / WT LRRK2 **Dmax (%): maximal degradation
Procedure, shortened: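 HEK293 cells carrying endogenous C-terminally HiBit-tagged LRRK2 and stably expressing CMV-driven firefly luciferase were treated for 24 h at 37° C with an 11-point 1:3 series from a 1 μM final top concentration. Nano-Glo Dual Luciferase read LRRK2-HiBit against firefly signal. Alamar Blue gave viability, and signals were normalized to DMSO median before curve fitting.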

[1] = HEK293, Table 2, HiBit-tagged LRRK2 in HEK293 cells, 24 hours treatment
[2] = Table 2, HiBit-tagged LRRK2 in HEK293 cells, 24 hours treatment, starting concentration 1 μM
[3] = HEK293, Table 3, comparison with direct comparators
[4] = Table 3, comparison with direct comparators, HiBit-tagged LRRK2 in HEK293 cells, 24 hours treatment
[5] = Table 2, HiBit-tagged LRRK2 in HEK293 cells, 24 hours treatment

Dmax [1]: 38%
DC50 [2]: 0.67 nM
Structure (SMILES): COc1ccc2[nH]nc(-c3cc(N4CCN(C[C@H]5CC[C@H](OC6CCN(c7ccc8c(c7)n(C)c(=O)n8C7CCC(=O)NC7=O)CC6)CC5)CC4)ncn3)c2c1 (single isomer, unassigned) [Compound 60, rel-3-[3-methyl-2-oxo-5-(4-{[(1r,4r)-4-({4-[6-(5-methoxy-1H-indazol-3-yl)pyrimidin-4-yl]piperazin-1-yl}methyl)cyclohexyl]oxy}piperidin-1-yl)-2,3-dihydro-1H-1,3-benzodiazol-1-yl]piperidine-2,6-dione]

DC50 [2]: ≥ 1000 nM
Structure (SMILES): COc1cc2c(-c3cc(N4CCN(C[C@H]5CC[C@H](OC6CCN(c7ccc8c(c7)n(C)c(=O)n8C7CCC(=O)NC7=O)CC6)CC5)CC4)ncn3)n[nH]c2cn1 (single isomer, unassigned) [Compound 21, rel-3-[3-methyl-2-oxo-5-(4-{[(1r,4r)-4-{[4-(6-{5-methoxy-1H-pyrazolo[3,4-c]pyridin-3-yl}pyrimidin-4-yl)piperazin-1-yl]methyl}cyclohexyl]oxy}piperidin-1-yl)-2,3-dihydro-1H-1,3-benzodiazol-1-yl]piperidine-2,6-dione]

Dmax [1]: 42%
Dmax [3]: 52%
DC50 [2]: 5.2 nM
DC50 [4]: 5.2 nM
Structure (SMILES): Cc1nc2cc(N3CCC(O[C@H]4CC[C@H](CN5CCN(c6cc(-c7n[nH]c8ccc(OC9(C)CC9)cc78)ncn6)CC5)CC4)CC3)ccc2n1C1CCC(=O)NC1=O (stereo partly drawn) [Compound 42, rel-3-[2-methyl-5-(4-{[(1r,4r)-4-[(4-{6-[5-(1-methylcyclopropoxy)-1H-indazol-3-yl]pyrimidin-4-yl}piperazin-1-yl)methyl]cyclohexyl]oxy}piperidin-1-yl)-1H-1,3-benzodiazol-1-yl]piperidine-2,6-dione]

Dmax [1]: 90%
DC50 [2]: 5.9 nM
Structure (SMILES): Cn1c(=O)n(C2CCC(=O)NC2=O)c2cc(Br)c(N3CCC(O[C@H]4CC[C@H](CN5CCN(c6cc(-c7n[nH]c8cnc(OC9(C)CC9)cc78)ncn6)CC5)CC4)CC3)cc21 (single isomer, unassigned) [Compound 67, rel-3-[6-bromo-3-methyl-2-oxo-5-(4-{[(1r,4r)-4-[(4-{6-[5-(1-methylcyclopropoxy)-1H-pyrazolo[3,4-c]pyridin-3-yl]pyrimidin-4-yl}piperazin-1-yl)methyl]cyclohexyl]oxy}piperidin-1-yl)-2,3-dihydro-1H-1,3-benzodiazol-1-yl]piperidine-2,6-dione]

Dmax [1]: 55%
DC50 [2]: 0.44 nM
Structure (SMILES): CC(C)n1c(=O)n(C2CCC(=O)NC2=O)c2ccc(N3CCC(O[C@H]4CC[C@H](CN5CCN(c6cc(-c7n[nH]c8ccc(OC9(C)CC9)cc78)ncn6)CC5)CC4)CC3)cc21 (single isomer, unassigned) [Compound 49, rel-3-[2-oxo-3-(propan-2-yl)-5-(4-{[(1r,4r)-4-[(4-{6-[5-(1-methylcyclopropoxy)-1H-indazol-3-yl]pyrimidin-4-yl}piperazin-1-yl)methyl]cyclohexyl]oxy}piperidin-1-yl)-2,3-dihydro-1H-1,3-benzodiazol-1-yl]piperidine-2,6-dione]

Dmax [1]: 58%
Dmax [3]: 58%
DC50 [2]: 0.17 nM
DC50 [4]: 0.17 nM
Structure (SMILES): Cn1c(=O)n(C2CCC(=O)NC2=O)c2ccc(N3CCC(O[C@H]4CC[C@H](CN5CCN(c6cc(-c7n[nH]c8ccc(OC9(C)CC9)cc78)ncn6)CC5)CC4)CC3)cc21 (stereo partly shown) [Compound 6, 3-[3-methyl-2-oxo-5-(4-{[(1r,4r)-4-[(4-{6-[5-(1-methylcyclopropoxy)-1H-indazol-3-yl]pyrimidin-4-yl}piperazin-1-yl)methyl]cyclohexyl]oxy}piperidin-1-yl)-2,3-dihydro-1H-1,3-benzodiazol-1-yl]piperidine-2,6-dione]

Dmax [3]: 52%
DC50 [4]: 5.6 nM
Structure (SMILES): COc1c(N2CCC(O[C@H]3CC[C@H](CN4CCN(c5cc(-c6n[nH]c7cnc(OC8(C)CC8)cc67)ncn5)CC4)CC3)CC2)ccc2c1CN(C1CCC(=O)NC1=O)C2=O (stereo partly shown) [Comparative Example 1, reference compound]

The remaining lines, values behind:

Structure (SMILES): Cn1c(=O)n(C2CCC(=O)NC2=O)c2cccc(N3CCC(CN4CCN(CC5CCN(c6cc(-c7n[nH]c8ccc(OC9(C)CC9)cc78)ncn6)CC5)C(C)(C)C4)CC3)c21 (stereo not shown) [Compound 8, 3-{4-[4-({3,3-dimethyl-4-[(1-{6-[5-(1-methylcyclopropoxy)-1H-indazol-3-yl]pyrimidin-4-yl}piperidin-4-yl)methyl]piperazin-1-yl}methyl)piperidin-1-yl]-3-methyl-2-oxo-2,3-dihydro-1H-1,3-benzodiazol-1-yl}piperidine-2,6-dione]
Dmax [1]: 65%
Dmax [3]: 65%
DC50 [2]: 1.2 nM
DC50 [4]: 1.2 nM

Structure (SMILES): Cn1c(=O)n(C2CCC(=O)NC2=O)c2ccc(N3CCC(O[C@H]4CC[C@H](CN5CCN(c6cc(-c7n[nH]c8cnc(OC(C)(C)C)cc78)ncn6)CC5)CC4)CC3)cc21 (single isomer, unassigned) [Compound 19, rel-3-[3-methyl-2-oxo-5-(4-{[(1r,4r)-4-[(4-{6-[5-(tert-butoxy)-1H-pyrazolo[3,4-c]pyridin-3-yl]pyrimidin-4-yl}piperazin-1-yl)methyl]cyclohexyl]oxy}piperidin-1-yl)-2,3-dihydro-1H-1,3-benzodiazol-1-yl]piperidine-2,6-dione]
Dmax [1]: 76%
DC50 [2]: 28 nM

Structure (SMILES): CC1(Oc2ccc3[nH]nc(-c4cc(N5CCC(CN6CCN(CC7CCN(c8cc(F)c9c(c8)ncn9C8CCC(=O)NC8=O)CC7)CC6(C)C)CC5)ncn4)c3c2)CC1 (stereo not shown) [Compound 39, 3-{5-[4-({3,3-dimethyl-4-[(1-{6-[5-(1-methylcyclopropoxy)-1H-indazol-3-yl]pyrimidin-4-yl}piperidin-4-yl)methyl]piperazin-1-yl}methyl)piperidin-1-yl]-7-fluoro-1H-1,3-benzodiazol-1-yl}piperidine-2,6-dione]
Dmax [1]: 56%
Dmax [3]: 56%
DC50 [2]: 4.9 nM
DC50 [4]: 4.9 nM

Structure (SMILES): Cn1c(=O)n(C2CCC(=O)NC2=O)c2ccc(N3CCC(OC4CCC(OC5CCN(c6cc(-c7n[nH]c8cnc(OC9(C)CC9)cc78)ncn6)CC5)CC4)CC3)cc21 (stereo not drawn) [Compound 25, rel-3-[3-methyl-2-oxo-5-(4-{[(1r,4r)-4-[(1-{6-[5-(1-methylcyclopropoxy)-1H-pyrazolo[3,4-c]pyridin-3-yl]pyrimidin-4-yl}piperidin-4-yl)oxy]cyclohexyl]oxy}piperidin-1-yl)-2,3-dihydro-1H-1,3-benzodiazol-1-yl]piperidine-2,6-dione]
DC50 [2]: 0.32 nM
WT LRRK2 **Dmax (%) [5]: 48%

Structure (SMILES): CC1(Oc2ccc3[nH]nc(-c4cc(N5CCC(CN6CCN(CC7CCN(c8ccc9ncn(C%10CCC(=O)NC%10=O)c9c8)CC7)CC6)CC5)ncn4)c3c2)CC1 (stereo not shown) [Compound 7, 3-{6-[4-({4-[(1-{6-[5-(1-methylcyclopropoxy)-1H-indazol-3-yl]pyrimidin-4-yl}piperidin-4-yl)methyl]piperazin-1-yl}methyl)piperidin-1-yl]-1H-1,3-benzodiazol-1-yl}piperidine-2,6-dione]
Dmax [1]: 64%
DC50 [2]: 6.4 nM

Structure (SMILES): Cn1c(=O)n(C2CCC(=O)NC2=O)c2ccc(C3CCN([C@H]4C[C@H](OC5CCN(c6cc(-c7n[nH]c8ccc(OC9(C)CC9)cc78)ncn6)CC5)C4)CC3)cc21 (single isomer, unassigned) [Compound 37, rel-3-(3-methyl-2-oxo-5-{1-[(1r,3r)-3-[(1-{6-[5-(1-methylcyclopropoxy)-1H-indazol-3-yl]pyrimidin-4-yl}piperidin-4-yl)oxy]cyclobutyl]piperidin-4-yl}-2,3-dihydro-1H-1,3-benzodiazol-1-yl)piperidine-2,6-dione]
DC50 [2]: 0.053 nM
Dmax [5]: 64%

Structure (SMILES): Cn1c(=O)n(C2CCC(=O)NC2=O)c2cc(N3CCC(CN4CCN(CC5CCN(c6cc(-c7n[nH]c8ccc(OC9(C)CC9)cc78)ncn6)CC5)C(C)(C)C4)CC3)ccc21 (stereo not shown) [Compound 17, 3-{6-[4-({3,3-dimethyl-4-[(1-{6-[5-(1-methylcyclopropoxy)-1H-indazol-3-yl]pyrimidin-4-yl}piperidin-4-yl)methyl]piperazin-1-yl}methyl)piperidin-1-yl]-3-methyl-2-oxo-2,3-dihydro-1H-1,3-benzodiazol-1-yl}piperidine-2,6-dione]
DC50 [2]: ≥ 1000 nM

Structure (SMILES): Cn1c(=O)n(C2CCC(=O)NC2=O)c2ccc(N3CCC(O[C@H]4CC[C@H](CN5CCN(c6cc(-c7n[nH]c8ccc([C@]9(C#N)CC9%10CC%10)cc78)ncn6)CC5)CC4)CC3)cc21 (single isomer, unassigned) [Compound 66, (1R**)-1-{3-[6-(4-{[(1r*,4r*)-4-({1-[1-(2,6-dioxopiperidin-3-yl)-3-methyl-2-oxo-2,3-dihydro-1H-1,3-benzodiazol-5-yl]piperidin-4-yl}oxy)cyclohexyl]methyl}piperazin-1-yl)pyrimidin-4-yl]-1H-indazol-5-yl}spiro[2.2]pentane-1-carbonitrile]
Dmax [1]: 61%
DC50 [2]: 0.14 nM

Structure (SMILES): Cn1c(=O)n(C2CCC(=O)NC2=O)c2ccc(N3CCC(OC4CCC(CN5CCN(c6cc(-c7n[nH]c8ccc(OC(C)(C)C)cc78)ncn6)CC5)CC4)CC3)cc21 (stereo not drawn) [Compound 54, rel-3-[3-methyl-2-oxo-5-(4-{[(1r,4r)-4-[(4-{6-[5-(tert-butoxy)-1H-indazol-3-yl]pyrimidin-4-yl}piperazin-1-yl)methyl]cyclohexyl]oxy}piperidin-1-yl)-2,3-dihydro-1H-1,3-benzodiazol-1-yl]piperidine-2,6-dione]
DC50 [2]: 0.33 nM
WT LRRK2 **Dmax (%) [5]: 53%

Structure (SMILES): COc1c(N2CCC(CN3CCN(CC4CCN(c5cc(-c6n[nH]c7ccc(OC8(C)CC8)cc67)ncn5)CC4)CC3)CC2)ccc2c1CN(C1CCC(=O)NC1=O)C2=O (stereo not shown) [Comparative Example 4, reference compound]
Dmax [3]: 80%
DC50 [4]: 0.79 nM
